Consider 19 compounds from publication PMC6981637, “Tetrahydroquinoline-Isoxazole/Isoxazoline Hybrid Compounds as Potential Cholinesterases Inhibitors: Synthesis, Enzyme Inhibition Assays, and Molecular Modeling Studies” (International Journal of Molecular Sciences, 2019).

The structures appear in SMILES notation. “And” between values parts separate entries of the source, which are not always exact repeats. Equal values may be shown once. Where only a bound is given, the exact number is not on record here.

Assay [1] addresses AChE (from Electrophorus electricus) (Electrophorus electricus, UniProt O42275). Particulars: for IC50: read-out: AChE (IC50).
Assay [2] concerns the target T1, BChE (from bovine serum) (Bos taurus, UniProt P32749).
T1 construct: purchased Sigma-Aldrich
In words: BChE inhibitory activity (Ellman method). Format: biochemical. The following applies: for IC50: Table 2, THQ–isoxazole hybrids 6, average from three independent experiments ± SEM, read-out: BChE (IC50); for selectivity against BChE: conclusions. For orientation: DTNB colorimetry detects thiols as they appear.

T1 sequence (P32749 29-602): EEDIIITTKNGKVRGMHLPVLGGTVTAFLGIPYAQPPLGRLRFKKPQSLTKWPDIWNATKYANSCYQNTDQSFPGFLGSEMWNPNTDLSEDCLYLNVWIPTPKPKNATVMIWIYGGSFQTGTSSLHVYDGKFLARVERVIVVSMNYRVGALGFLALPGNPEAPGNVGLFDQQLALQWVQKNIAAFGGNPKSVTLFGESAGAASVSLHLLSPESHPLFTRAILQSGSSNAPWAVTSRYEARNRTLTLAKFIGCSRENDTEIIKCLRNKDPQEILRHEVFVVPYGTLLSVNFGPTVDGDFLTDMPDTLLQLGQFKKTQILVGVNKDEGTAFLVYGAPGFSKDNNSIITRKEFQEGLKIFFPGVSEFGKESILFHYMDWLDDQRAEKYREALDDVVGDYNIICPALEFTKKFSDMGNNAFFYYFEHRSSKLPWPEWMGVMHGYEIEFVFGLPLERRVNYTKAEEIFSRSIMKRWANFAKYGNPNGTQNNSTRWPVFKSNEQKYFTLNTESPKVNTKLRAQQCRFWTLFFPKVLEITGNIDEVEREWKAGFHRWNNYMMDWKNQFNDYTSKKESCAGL
Chain of AChE (from Electrophorus electricus) (O42275 24-633): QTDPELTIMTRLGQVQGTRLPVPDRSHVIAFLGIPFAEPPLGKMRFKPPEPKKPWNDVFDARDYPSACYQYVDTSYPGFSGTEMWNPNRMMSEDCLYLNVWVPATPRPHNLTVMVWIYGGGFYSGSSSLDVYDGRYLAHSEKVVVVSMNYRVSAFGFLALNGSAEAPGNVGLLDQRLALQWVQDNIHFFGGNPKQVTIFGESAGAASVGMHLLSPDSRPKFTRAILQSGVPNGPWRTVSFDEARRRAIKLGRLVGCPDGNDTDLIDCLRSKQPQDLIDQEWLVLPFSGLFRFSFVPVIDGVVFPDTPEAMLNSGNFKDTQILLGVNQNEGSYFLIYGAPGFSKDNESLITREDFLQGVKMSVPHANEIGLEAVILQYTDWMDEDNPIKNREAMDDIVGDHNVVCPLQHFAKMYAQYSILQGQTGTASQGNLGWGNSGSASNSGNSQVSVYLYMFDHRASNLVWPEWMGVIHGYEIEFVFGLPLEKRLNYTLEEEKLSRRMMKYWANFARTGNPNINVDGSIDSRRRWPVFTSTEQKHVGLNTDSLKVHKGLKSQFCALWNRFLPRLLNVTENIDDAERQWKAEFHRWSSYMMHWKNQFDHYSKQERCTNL

With `COc1cc(-c2cc(CN3CCC(N4CCCC4=O)c4cc(C)ccc43)on2)cc(OC)c1OC` (stereo not drawn) [6g, 3-(3,4,5-trimethoxyphenyl)-5-((6′-methyl-4′-(2′’-oxopyrrolidin-1′’-yl)-3′,4′-dihydroquinolin-1′(2′H)-yl)methyl)isoxazole], in assay [1], the SI turned out to be 1.07 and the IC50 (usually the midpoint of a concentration-inhibition curve) stood at 72.94 ± 0.02 µM. Also, in assay [2], the IC50 was found to be 78.16 ± 0.01 µM.
In the case of `COc1ccc2c(c1)C(N1CCCC1=O)CCN2Cc1cc(-c2ccccc2)no1` (stereo not drawn) [6h, 5-((6′-methoxy-4′-(2′’-oxopyrrolidin-1′’-yl)-3′,4′-dihydroquinolin-1′(2′H)-yl)methyl)-3-phenylisoxazole], in assay [1], the SI amounted to 0.08 and the IC50 was found to be 52.76 ± 0.01 µM. For the same compound, in assay [2], the half-inhibitory concentration (IC50) was < 7.18 µM and 4.33 µM; the “selectivity against BChE” value is on record as “more selective”.
For `COc1ccc(-c2cc(CN3CCC(N4CCCC4=O)c4cc(OC)ccc43)on2)cc1` (stereo not drawn) [6i, 3-(4-methoxyphenyl)-5-((6′-methoxy-4′-(2′’-oxopyrrolidin-1′’-yl)-3′,4′-dihydroquinolin-1′(2′H)-yl)methyl)isoxazole], in assay [1], the SI was 2.52 and the IC50 was 84.51 ± 0.01 µM. Besides, the IC50 in assay [2] was determined as 213.22 ± 0.01 µM.
The corresponding values for `COc1cc(Cl)c2c(c1)C(N1CCCC1=O)CCN2Cc1cc(-c2ccc(OC)c(OC)c2)no1` (stereo not drawn) [6j, 5-((8′-chloro-6′-methoxy-4′-(2′’-oxopyrrolidin-1′’-yl)-3′,4′-dihydroquinolin-1′(2′H)-yl)methyl)-3-(3,4-dimethoxyphenyl)isoxazole] are 2.72, 54.69 ± 0.01 µM and 149 ± 0.02 µM.
The corresponding values for `COc1ccc2c(c1)C(N1CCCC1=O)CCN2Cc1cc(-c2cc(OC)c(OC)c(OC)c2)no1` (stereo not drawn) [6k, 3-(3,4,5-trimethoxyphenyl)-5-((6′-methoxy-4′-(2′’-oxopyrrolidin-1′’-yl)-3′,4′-dihydroquinolin-1′(2′H)-yl)methyl)isoxazole] are 3.63, 20.19 ± 0.02 µM and 73.26 ± 0.01 µM.
On to `O=C1CCCN1C1CCN(Cc2cc(-c3ccccc3)no2)c2ccc(Cl)cc21` (stereo not drawn) [6l, 5-((6′-chloro-4′-(2′’-oxopyrrolidin-1′’-yl)-3′,4′-dihydroquinolin-1′(2′H)-yl)methyl)-3-phenylisoxazole], for which, in assay [1], the SI was determined as 0.15 and the IC50 was 92.01 ± 0.05 µM. Besides, in assay [2], the IC50 was 14.11 ± 0.02 µM and the “selectivity against BChE” value was “more selective”.
On to `COc1ccc(-c2cc(CN3CCC(N4CCCC4=O)c4cc(Cl)ccc43)on2)cc1` (stereo not drawn) [6m, 5-((6′-chloro-4′-(2′’-oxopyrrolidin-1′’-yl)-3′,4′-dihydroquinolin-1′(2′H)-yl)methyl)-3-(4-methoxyphenyl)isoxazole], for which, in assay [1], the SI is recorded as 1.39 and the IC50 turned out to be 13.27 ± 0.01 µM. In assay [2], the IC50 turned out to be 18.42 ± 0.01 µM.
In assay [1], `COc1ccc(-c2cc(CN3CCC(N4CCCC4=O)c4cc(Cl)ccc43)on2)cc1OC` (stereo not drawn) [6n, 5-((6′-chloro-4′-(2′’-oxopyrrolidin-1′’-yl)-3′,4′-dihydroquinolin-1′(2′H)-yl)methyl)-3-(3,4-dimethoxyphenyl)isoxazole] yielded an SI of 2.75. The IC50 turned out to be 8.98 ± 0.01 µM in assay [1] and 24.67 ± 0.01 µM in assay [2].
The matching figures for `COc1ccc(-c2cc(CN3CCC(N4CCCC4=O)c4cc(Cl)cc(Cl)c43)on2)cc1OC` (stereo not drawn) [6o, 5-((6′,8′-dichloro-4′-(2′’-oxopyrrolidin-1′’-yl)-3′,4′-dihydroquinolin-1′(2′H)-yl)methyl)-3-(3,4-dimethoxyphenyl)isoxazole]: 3.88, 80.89 ± 0.04 µM and 313.82 ± 0.01 µM.
The matching figures for `COc1cc(-c2cc(CN3CCC(N4CCCC4=O)c4cc(Cl)ccc43)on2)cc(OC)c1OC` (stereo not drawn) [6p, 5-((6′-chloro-4′-(2′’-oxopyrrolidin-1′’-yl)-3′,4′-dihydroquinolin-1′(2′H)-yl)methyl)-3-(3,4,5-trimethoxyphenyl)isoxazole]: 1.11, 41.95 ± 0.11 µM and 46.84 ± 0.01 µM.
The corresponding values for `CCc1ccc2c(c1)C(N1CCCC1=O)CCN2Cc1cc(-c2ccccc2)no1` (stereo not drawn) [6q, 5-((6′-ethyl-4′-(2′’-oxopyrrolidin-1′’-yl)-3′,4′-dihydroquinolin-1′(2′H)-yl)methyl)-3-phenylisoxazole] are 1.43, 75.95 ± 0.04 µM and 108.28 ± 0.01 µM.
In turn, `CCc1ccc2c(c1)C(N1CCCC1=O)CCN2Cc1cc(-c2ccc(OC)cc2)no1` (stereo not drawn) [6r, 5-((6′-ethyl-4′-(2′’-oxopyrrolidin-1′’-yl)-3′,4′-dihydroquinolin-1′(2′H)-yl)methyl)-3-(4-methoxyphenyl)isoxazole] showed an SI in assay [1] of 0.38. The IC50 in assay [1] was 18.83 ± 0.003 µM; in assay [2], < 7.18 µM and 7.18 µM.
With `CCc1cc(Cl)c2c(c1)C(N1CCCC1=O)CCN2Cc1cc(-c2ccc(OC)c(OC)c2)no1` (stereo not drawn) [6s, 5-((8′-chloro-6′-ethyl-4′-(2′’-oxopyrrolidin-1′’-yl)-3′,4′-dihydroquinolin-1′(2′H)-yl)methyl)-3-(3,4-dimethoxyphenyl)isoxazole], in assay [1], the SI is given as 0.83 and the IC50 turned out to be 26.82 ± 0.002 µM. Moreover, the half-inhibitory concentration (IC50) in assay [2] is 22.28 ± 0.004 µM.
As to `O=C1CCCN1C1CCN(Cc2cc(-c3ccccc3)no2)c2ccc(F)cc21` (stereo not drawn) [6u, 5-((6′-fluor-4′-(2′’-oxopyrrolidin-1′’-yl)-3′,4′-dihydroquinolin-1′(2′H)-yl)methyl)-3-phenylisoxazole], in assay [1], the SI amounted to 0.15 and the IC50 came to 116.63 ± 0.01 µM. In assay [2], the IC50 came to 17.74 ± 0.01 µM and the “selectivity against BChE” value is on record as “more selective”.
In assay [1], `COc1ccc(-c2cc(CN3CCC(N4CCCC4=O)c4cc(F)ccc43)on2)cc1` (stereo not drawn) [6v, 5-((6′-fluoro-4′-(2′’-oxopyrrolidin-1′’-yl)-3′,4′-dihydroquinolin-1′(2′H)-yl)methyl)-3-(4-methoxyphenyl)isoxazole] registered an SI of 1.97. The IC50 in assay [1] turned out to be 42.48 ± 0.004 µM; in assay [2] it was 83.75 ± 0.01 µM.
The matching figures for `COc1ccc(-c2cc(CN3CCC(N4CCCC4=O)c4cc(F)ccc43)on2)cc1OC` (stereo not drawn) [6w, 5-((6′-fluoro-4′-(2′’-oxopyrrolidin-1′’-yl)-3′,4′-dihydroquinolin-1′(2′H)-yl)methyl)-3-(3,4-dimethoxyphenyl)isoxazole]: 2.79, 16.83 ± 0.002 µM and 46.92 ± 0.01 µM.
The corresponding values for `COc1cc(-c2cc(CN3CCC(N4CCCC4=O)c4cc(F)ccc43)on2)cc(OC)c1OC` (stereo not drawn) [6x, 5-((6′-fluoro-4′-(2′’-oxopyrrolidin-1′’-yl)-3′,4′-dihydroquinolin-1′(2′H)-yl)methyl)-3-(3,4,5-trimethoxyphenyl)isoxazole] are 6.57, 24.83 ± 0.003 µM and 163.12 ± 0.01 µM.
The corresponding values for `O=C1CCCN1C1CCN(Cc2cc(-c3ccccc3)no2)c2ccc(Br)cc21` (stereo not drawn) [6y, 5-((6′-bromo-4′-(2′’-oxopyrrolidin-1′’-yl)-3′,4′-dihydroquinolin-1′(2′H)-yl)methyl)-3-phenylisoxazole] are 0.87, 97.84 ± 0.01 µM and 84.91 ± 0.01 µM.
For the compound `COc1ccc(-c2cc(CN3CCC(N4CCCC4=O)c4cc(Br)ccc43)on2)cc1` (stereo not drawn) [6z, 3-(4-methoxyphenyl)-5-((6′-bromo-4′-(2′’-oxopyrrolidin-1′’-yl)-3′,4′-dihydroquinolin-1′(2′H)-yl)methyl)isoxazole], in assay [1], the SI was 0.48 and the IC50 came to 12.19 ± 0.005 µM. For the same compound, in assay [2], the IC50 is < 7.18 µM and 5.81 µM.
